Assay results published in patent publication US20240150293A1, “SPIROCYCLOHEXANE DERIVATIVES, PHARMACEUTICAL COMPOSITIONS CONTAINING THEM AND THEIR USES AS ANTI-APOPTOTIC INHIBITORS” (LES LABORATOIRES SERVIER, priority 2021, published 2024).
Where two headings read alike, the source gives them in different places.

Tests used:
[1] = target: Cy5-labelled Mcl1 (amino acids 171-321) C286S protein (UniProtKB Q07820) (Homo sapiens (Human), UniProt Q07820, C286S); assay: Inhibition of Mcl-1 by the fluorescence quenching assay (Example A, Method B); assay type: binding
Source text: Fluorescence quenching assay measures the change fluorescence intensity of C-terminally Cy5-labelled Mcl1 (amino acids 171-321) C286S protein (UniProtKB® primary accession number Q07820) having an amino acid sequence:
which is linked at the C-terminus to the amino acid X which corresponds to a cysteine labelled on the sulfur with sulpho-Cyanine5 from Lumiprobe GmbH catalogue number 13380, upon binding of a C-terminally labelled peptide derived from PUMA (UniProtKB® primary accession number Q9BXH1) having an amino acid sequence:
which is linked at the C-terminus to the amino acid X′, where X′ is cysteine labelled on the sulfur with TQ5WS from AAT Bioquest catalogue number 2079.
The addition of a compound which binds competitively to the same site as the peptide will result in an increase in the fluorescence intensity of the protein due to displacement of the fluorescence quencher.
An 11-point serial dilution of each compound was prepared in DMSO, the final buffer conditions were 10 mM 4-(2-hydroxyethyl)-1-piperazineethanesulfonic acid [HEPES], 150 mM NaCl, 0.05% Tween 20, pH 7.4 and 5% DMSO. The final protein concentration in the assay was 1 nM with the peptide present at 10, 20 or 400 nM. The experiments were incubated for 2 hours at room temperature before fluorescence intensity was measured on a Biotek SynergyNeo plate reader (Excitation 620 nm, emission 680 nm). The dose response curves were plotted with XL-Fit software using a 4-Parameter Logistic Model (Sigmoidal DoseResponse Model) and the inhibitory concentrations that gave a 50% increase in fluorescence intensity was determined (IC50). The Ki values were determined from the IC50 values according to Cer et al, Nucleic Acids Res, 2009, 37 (WebServer issue): W441-W445. Inhibition constants (Ki) are determined from complete binding inhibition curves (cKi) or from estimated from incomplete binding inhibition curves (eKi) in most cases due to low activity.

Mcl-1 protein = Mcl-1 protein (UniProtKB Q07820) (Homo sapiens (Human), UniProt Q07820); assay: Inhibition of Mcl-1 by the fluorescence polarisation assay (Example A, Method A); assay type: binding; details: fluorescence polarization assay
In short: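 Protein (5 nM) and fluorescein-tagged peptide tracer (1 nM) incubated with 11-point compound series for 2 h at room temperature in HEPES/NaCl/Tween 20 buffer, pH 7.4, 5% DMSO. Displacement read as decrease in polarisation; IC50 fitted by 4-parameter logistic, converted to Ki (cKi or eKi).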

Sequence of Cy5-labelled Mcl1 (amino acids 171-321) C286S protein (Q07820 171-321 C286S): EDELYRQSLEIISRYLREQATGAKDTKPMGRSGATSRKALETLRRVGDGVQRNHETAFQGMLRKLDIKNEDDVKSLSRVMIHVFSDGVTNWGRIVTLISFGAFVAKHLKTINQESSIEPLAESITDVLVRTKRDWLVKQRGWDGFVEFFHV
Sequence of Mcl-1 protein (Q07820 whole entry): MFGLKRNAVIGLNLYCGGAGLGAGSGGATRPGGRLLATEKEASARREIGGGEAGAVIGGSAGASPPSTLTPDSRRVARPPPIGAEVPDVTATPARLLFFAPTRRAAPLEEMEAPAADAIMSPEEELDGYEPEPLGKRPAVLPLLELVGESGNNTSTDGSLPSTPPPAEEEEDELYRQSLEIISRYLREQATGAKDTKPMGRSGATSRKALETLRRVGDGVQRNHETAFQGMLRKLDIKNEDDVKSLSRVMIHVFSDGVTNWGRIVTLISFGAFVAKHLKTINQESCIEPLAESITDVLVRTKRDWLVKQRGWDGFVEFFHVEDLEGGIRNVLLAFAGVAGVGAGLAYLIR

| Ki [1] [nM] | Ki (Mcl-1 protein) [nM] | Structure (SMILES) | other results |
| --- | --- | --- | --- |
| 63.8 | – | O=C(O)[C@]1(Nc2cccc(Cl)c2)CC[C@@]2(CC1)c1ccccc1CC2CC(F)(F)COc1ccnc2c1CCC2 (some centres unmarked) [Example 503, (1r,4r)-4-(3-chloroanilino)-2′-{3-[(6,7-dihydro-5H-cyclopenta[b]pyridin-4-yl)oxy]-2,2-difluoropropyl}-2′,3′-dihydrospiro[cyclohexane-1,1′-indene]-4-carboxylic acid] | – |
| 44.1 | – | C[C@@H](COc1cccc2[nH]ccc12)CC1Cc2ccccc2[C@]12CC[C@@](Nc1cccc(Cl)c1)(C(=O)O)CC2 (stereo partly drawn) [Example 594, (1r,4R)-4-(3-chloroanilino)-2′-{(2R)-3-[(1H-indol-4-yl)oxy]-2-methylpropyl}-2′,3′-dihydrospiro[cyclohexane-1,1′-indene]-4-carboxylic acid] | – |
| 22.7 | – | O=C(O)[C@]1(Nc2cccc(Cl)c2)CC[C@@]2(CC1)c1ccccc1CC2CC(COc1ccnc2c1CCCC2)C(F)F (single isomer, unassigned) [Example 512, (1r,4r)-4-(3-chloroanilino)-2′-(3,3-difluoro-2-{[(5,6,7,8-tetrahydroquinolin-4-yl)oxy]methyl}propyl)-2′,3′-dihydrospiro[cyclohexane-1,1′-indene]-4-carboxylic acid] | – |
| 15.5 | – | O=C(O)[C@]1(Nc2cccc(Cl)c2)CC[C@@]2(CC1)c1ccccc1CC2CC(CO)COc1ccnc2c1CCC2 (single isomer, unassigned) [Example 500, (1r,4r)-4-(3-chloroanilino)-2′-(2-{[(6,7-dihydro-5H-cyclopenta[b]pyridin-4-yl)oxy]methyl}-3-hydroxypropyl)-2′,3′-dihydrospiro[cyclohexane-1,1′-indene]-4-carboxylic acid] | – |
| 6.01 | – | C[C@@H](COc1ccnc2c1CCCCC2)CC1=Cc2ccccc2[C@]12CC[C@@](Nc1cccc(Cl)c1)(C(=O)O)CC2 [Example 632, (1r,4R)-4-(3-chloroanilino)-2′-{(2R)-2-methyl-3-[(6,7,8,9-tetrahydro-5H-cyclohepta[b]pyridin-4-yl)oxy]propyl}spiro[cyclohexane-1,1′-indene]-4-carboxylic acid] | – |
| 152 | – | Cc1cc(OCCC[C@H]2Cc3ccccc3[C@]23CC[C@@](Nc2cccc(Cl)c2)(C(=O)O)CC3)c2cc[nH]c2c1 [Example 488, (1r,2′S,4S)-4-(3-chloroanilino)-2′-{3-[(6-methyl-1H-indol-4-yl)oxy]propyl}-2′,3′-dihydrospiro[cyclohexane-1,1′-indene]-4-carboxylic acid] | – |
| 12.1 | – | C[C@H](C[C@H]1Cc2ccccc2[C@]12CC[C@@](Nc1cccc(Cl)c1)(C(=O)O)CC2)[C@@H](C)Oc1ccnc2c1CCC2 [Example 616, (1r,2′S,4S)-4-(3-chloroanilino)-2′-{(2R,3R)-3-[(6,7-dihydro-5H-cyclopenta[b]pyridin-4-yl)oxy]-2-methylbutyl}-2′,3′-dihydrospiro[cyclohexane-1,1′-indene]-4-carboxylic acid] | – |
| 123 | – | CC(CC1Cc2ccccc2[C@]12CC[C@@](Nc1cccc(Cl)c1)(C(=O)O)CC2)C(C)Oc1ccnc2c1CCC2 (single isomer, unassigned) [Example 614, (1r,4r)-4-(3-chloroanilino)-2′-{3-[(6,7-dihydro-5H-cyclopenta[b]pyridin-4-yl)oxy]-2-methylbutyl}-2′,3′-dihydrospiro[cyclohexane-1,1′-indene]-4-carboxylic acid] | – |
| – | 201 | O=C(O)[C@]1(Nc2cccc(Cl)c2)CC[C@@]2(CC1)c1ccccc1CC2c1cccc(OCc2cccnc2)c1 (single isomer, unassigned) [Example 372, (1r,4r)-4-(3-chloroanilino)-2′-{3-[(pyridin-3-yl)methoxy]phenyl}-2′,3′-dihydrospiro[cyclohexane-1,1′-indene]-4-carboxylic acid] | – |
| – | 473 | O=C(O)[C@]1(Nc2cccc(Cl)c2)CC[C@]2(CC1)C(COCCc1cccc(F)c1)=Cc1ccccc12 [Example 412, (1s,4s)-4-(3-chloroanilino)-2′-{[2-(3-fluorophenyl)ethoxy]methyl}spiro[cyclohexane-1,1′-indene]-4-carboxylic acid] | – |
| – | 206 | O=C(O)[C@]1(Nc2cccc(Cl)c2)CC[C@@]2(CC1)c1ccccc1CC2CCCOc1cc(F)cc(Cl)c1 (some centres unmarked) [Example 430, (1r,4r)-4-(3-chloroanilino)-2′-[3-(3-chloro-5-fluorophenoxy)propyl]-2′,3′-dihydrospiro[cyclohexane-1,1′-indene]-4-carboxylic acid] | – |

Further lines, the molecule ahead of its results:

| Structure (SMILES) | Ki [1] [nM] | Ki (Mcl-1 protein) [nM] | other results |
| --- | --- | --- | --- |
| Cc1cccc2c1C=C(Br)[C@]21CC[C@](Nc2cccc(Cl)c2)(C(=O)O)CC1 [Example 141, (1s,4s)-2′-bromo-4-(3-chloroanilino)-4′-methylspiro[cyclohexane-1,1′-indene]-4-carboxylic acid] | – | – | Ki ([1]; Ki determined from IC50): 91.6 nM |
| CC(C)OC(=O)[C@]1(Nc2cccc(Cl)c2)CC[C@@]2(CC1)c1cc3c(cc1C[C@@H]2C[C@@H](C)COc1ccnc2c1[C@H](C)CCC2)OCO3 [Example 931, propan-2-yl (1r,4S,6′S)-4-(3-chloroanilino)-6′-[(2R)-2-methyl-3-{[(5R)-5-methyl-5,6,7,8-tetrahydroquinolin-4-yl]oxy}propyl]-6′,7′-dihydro-2′H-spiro[cyclohexane-1,5′-indeno[5,6-d][1,3]dioxole]-4-carboxylate] | – | – | inhibition at 10 µM ([1]; @ 10 μM, read-out: Mcl-1 inhibition, % at a single concentration): 9.5% |
| COC(=O)[C@]1(Nc2cccc(Cl)c2)CC[C@@]2(CC1)c1cc3c(cc1C[C@@H]2C[C@@H](C)COc1ccnc2c1[C@H](C)CCC2)OCO3 [Example 839, methyl (1r,4S,6′S)-4-(3-chloroanilino)-6′-[(2R)-2-methyl-3-{[(5R)-5-methyl-5,6,7,8-tetrahydroquinolin-4-yl]oxy}propyl]-6′,7′-dihydro-2′H-spiro[cyclohexane-1,5′-indeno[5,6-d][1,3]dioxole]-4-carboxylate] | – | – | inhibition at 1 µM ([1]; @ 1 μM, read-out: Mcl-1 inhibition, % at a single concentration): 11.1% |
| N#Cc1cccc(N[C@]2(C(=O)O)CC[C@@]3(CC2)C(Br)=Cc2ccccc23)c1 [Example 82, (1s,4s)-2′-bromo-4-(3-cyanoanilino)spiro[cyclohexane-1,1′-indene]-4-carboxylic acid] | – | – | Ki ([1]; Ki determined from IC50): 437 nM |
| C[C@@H](COc1ccnc2ccsc12)CN1Cc2ccccc2[C@]12CC[C@@](Nc1cccc(Cl)c1)(C(=O)O)CC2 [Example 38, (1s,4S)-4-(3-chloroanilino)-2′-{(2R)-2-methyl-3-[(thieno[3,2-b]pyridin-7-yl)oxy]propyl}-2′,3′-dihydrospiro[cyclohexane-1,1′-isoindole]-4-carboxylic acid] | – | – | Ki ([1]; Ki determined from IC50): 14.4 nM |
| O=C(O)[C@]1(Nc2cccc(C(F)(F)F)c2)CC[C@]2(CC1)C(Br)=Cc1ccccc12 [Example 85, (1s,4s)-2′-bromo-4-[3-(trifluoromethyl)anilino]spiro[cyclohexane-1,1′-indene]-4-carboxylic acid] | – | – | Ki ([1]; Ki determined from IC50): 424 nM |
| CC1=Nc2ccc(Br)cc2[C@]12CC[C@](Nc1cccc(Br)c1)(C(=O)O)CC2 [Example 27, (1r,4r)-5′-bromo-4-(3-bromoanilino)-2′-methylspiro[cyclohexane-1,3′-indole]-4-carboxylic acid] | – | 36300 | – |
| CCc1ccc2c(c1)[C@]1(CC[C@](Nc3cccc(Br)c3)(C(=O)O)CC1)C(=O)N2C [Example 8, (1r,4r)-4-(3-bromoanilino)-5′-ethyl-1′-methyl-2′-oxo-1′,2′-dihydrospiro[cyclohexane-1,3′-indole]-4-carboxylic acid] | – | 22500 | – |
| CCN1c2ccccc2[C@]2(CC[C@](Nc3cccc(Br)c3)(C(=O)O)CC2)C1=O [Example 2, (1r,4r)-4-(3-bromoanilino)-1′-ethyl-2′-oxo-1′,2′-dihydrospiro[cyclohexane-1,3′-indole]-4-carboxylic acid] | – | 7670 | – |
| O=C(O)[C@]1(Nc2cccc(Cl)c2)CC[C@]2(CC1)C(c1coc3ccccc13)=Cc1ccccc12 [Example 245, (1s,4s)-2′-(1-benzofuran-3-yl)-4-(3-chloroanilino)spiro[cyclohexane-1,1′-indene]-4-carboxylic acid] | – | 4300 | – |
| O=C(O)[C@]1(Nc2cccc(Cl)c2)CC[C@@]2(CC1)c1ccccc1CC2[C@H]1C[C@@H]1COc1ccccc1 (relative stereo) [Example 109, (1r,4r)-4-(3-chloroanilino)-2′-[(1R*,2S*)-2-(phenoxymethyl)cyclopropyl]-2′,3′-dihydrospiro[cyclohexane-1,1′-indene]-4-carboxylic acid] | – | 745 | – |
| O=C(O)[C@]1(Nc2cccc(Cl)c2)CC[C@]2(CC1)C(I)=Cc1ccccc12 [Example 76, (1s,4s)-4-(3-chloroanilino)-2′-iodospiro[cyclohexane-1,1′-indene]-4-carboxylic acid] | – | 284 | – |
